Tests used:
pertussis toxin = pertussis toxin (Bordetella pertussis, UniProt P04977); test: Inactivation of NADase activity by sulfhydryl reagents, 6 minutes or 18 hours at 0-4° (Example Eight); format: biochemical
Method: Pertussis toxin was incubated at 37° C. for fifteen minutes as described in Example Six, and then a second incubation was begun by adding 10 μl buffer A with or without 12.5 mM iodoacetate, mixing the contents of the tube and lowering the temperature to 30° C. After fifteen minutes, the tubes were shifted to an ice bath for ten minutes. A third incubation was then begun by adding 10 μl buffer A containing 200 mM DTT to those tubes containing iodoacetate to scavenge the iodoacetate. To those tubes not containing iodoacetate during the second incubation, a mixture of 200 mM DTT and 12.5 mM iodoacetate in buffer A, previously incubated for an hour on ice, was added. The third incubation was continued for one hour on ice.
The contents of each tube were then assayed for NADase activity by adding 40 μl of a reaction mix consisting of buffer A containing carbon-14 labelled NAD (final concentration in the 100 μl final volume was 25 μM), and 50 mM sodium chloride. Different reaction mixtures with various additions were used, so that in all tubes the final concentration of ATP was 1 mM and CHAPS was 1 weight percent. The assay was conducted at 37° C. for sixty minutes, and the released labelled nicotinimide was isolated and counted. The iced controls were formed by incubating pertussis toxin (1 μg) on ice in 10 mM sodium phosphate (pH 7) and 50 mM sodium chloride during the first three incubations. […] The first three incubations were done under a nitrogen atmosphere using degassed conditions, and the second and third incubations were done under subdued light.
The procedure followed in Example Seven was repeated for this study, except that N-ethylmaleimide, chloroacetamide or chloroacetate were substituted for iodoacetate. After the 30° C. incubation, the tubes were either incubated for six minutes or eighteen hours at 0°-4° C. before the 10 μl of 200 mM DTT (with or without quenched reagent) was added. Those tubes receiving the DTT after six minutes were incubated for nineteen hours at 0°-4° C. prior to the NADase assay. Those receiving the DTT after eighteen hours were incubated with DTT for one hour, as in Example Seven. The tubes were then assayed for NADase activity at the same time.

[1] = system: S1 -S5 subunits of the toxin; test: Labelled iodoacetate incorporation into toxin subunits, electrophoresis and x-ray film (Examples Two and Six); parameters: species or system Bordetella pertussis
Method: Pertussis toxin (2.5 μg) was incubated for thirty minutes at 37° C. in 50 μl of 50 mM Tris-HCl (pH 8.0) with or without combinations of the activators ATP, CHAPS and DTT. During this incubation, ATP was 1 mM, CHAPS was 1 weight percent, and DTT was 0.5 mM, when present. Following this incubation, 75 nmol (1.34 microCi of iodo[^14 C]acetate and 25 μl of water were then added, and the tubes incubated for an additional thirty minutes under nitrogen gas at 30° C. in the dark. This labelling reaction was terminated by adding 1 ml of ice-cold water containing 7.5 mM non-radioactive iodoacetate, 2.5 μg bovine serum albumin, and 150 μg sodium deoxycholate. After ten minutes on ice, 100 μl 72% triochloroacetic acid was added, and the precipitate recovered by centrifugation. Sodium dodecylsulfate and beta-mercaptoethanol were added, the sample heated to 95° C. for one minute, and then electrophoresed using 15% polyacrylamide gels. The fixed gels were then treated, dried and used to expose x-ray film at -70° C.
Pertussis toxin was incubated first at 37° C. for fifteen minutes in […] buffer A (100 mM Tris-HCl, pH 8.0 with 1 mM NaEDTA). EDTA was added to chelate divalent cations, which may promote oxidation of free --SH groups. During this incubation, DTT and ATP were present in concentrations of 1 mM each, and CHAPS was present in a concentration of 1 weight percent. Labelled iodoacetate was then added ([…], 12.5 mM), and the tube incubated on ice for twenty hours. The sample was then mixed with sodium dodecylsulfate and β-mercaptoethanol, heated at 95° C. for one minute, and electrophoresed. After electrophoresis, the gel was fixed, treated with Fluorohance (Research Products International), dried and used to expose x-ray film.

[2] = first incubation: ATP, CHAPS, 18 hours at 0-4°
[3] = first incubation: ATP, DTT, CHAPS, 6 minutes at 0-4°
[4] = first incubation: ATP, DTT, CHAPS, 18 hours at 0-4°
[5] = first incubation: CHAPS, 18 hours at 0-4°
[6] = first incubation: DTT, CHAPS, 18 hours at 0-4°
[7] = first incubation: none, 15 minutes at 30° C. followed by 18 hours at 0-4°

Chain of pertussis toxin (P04977 35-269 limits assumed): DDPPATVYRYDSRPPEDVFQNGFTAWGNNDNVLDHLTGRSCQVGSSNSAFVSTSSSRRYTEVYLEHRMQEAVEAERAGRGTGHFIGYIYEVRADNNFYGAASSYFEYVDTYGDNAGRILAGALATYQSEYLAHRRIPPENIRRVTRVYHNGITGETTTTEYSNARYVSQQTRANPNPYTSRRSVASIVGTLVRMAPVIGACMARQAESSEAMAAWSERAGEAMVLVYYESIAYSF
Chain of S1 -S5 subunits of the toxin (P04977 35-269 limits assumed): as above
Chain of S1 -S5 subunits of the toxin (P04978 28-226 limits assumed, further chain): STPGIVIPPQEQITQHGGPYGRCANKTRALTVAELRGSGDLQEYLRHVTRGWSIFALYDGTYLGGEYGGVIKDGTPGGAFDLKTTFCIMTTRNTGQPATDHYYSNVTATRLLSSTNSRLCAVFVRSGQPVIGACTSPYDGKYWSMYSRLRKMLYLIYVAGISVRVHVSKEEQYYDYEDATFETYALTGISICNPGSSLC
Chain of S1 -S5 subunits of the toxin (P04979 29-227 limits assumed, further chain): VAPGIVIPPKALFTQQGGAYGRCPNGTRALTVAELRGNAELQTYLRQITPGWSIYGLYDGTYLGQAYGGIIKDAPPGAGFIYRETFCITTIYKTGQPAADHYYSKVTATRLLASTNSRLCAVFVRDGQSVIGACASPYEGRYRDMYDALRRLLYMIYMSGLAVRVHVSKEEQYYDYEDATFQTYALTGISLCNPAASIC
Chain of S1 -S5 subunits of the toxin (P0A3R5 43-152 limits assumed, further chain): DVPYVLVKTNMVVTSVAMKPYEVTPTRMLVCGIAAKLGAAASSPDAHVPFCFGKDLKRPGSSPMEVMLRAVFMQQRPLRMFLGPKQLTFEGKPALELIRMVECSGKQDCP
Chain of S1 -S5 subunits of the toxin (P04981 35-133 limits assumed, further chain): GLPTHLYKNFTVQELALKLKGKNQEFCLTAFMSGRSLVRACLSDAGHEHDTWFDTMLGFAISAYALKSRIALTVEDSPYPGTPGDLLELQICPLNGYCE

O=C(O)CI [iodoacetate]
NADase activity (pertussis toxin; [2]): 110 pmol per μg per hour
percent of activity with no addition to second incubation (pertussis toxin; [2]): 85%
NADase activity (pertussis toxin; [3]): 17 pmol per μg per hour
percent of activity with no addition to second incubation (pertussis toxin; [3]): 17%
NADase activity (pertussis toxin; [4]): 3 pmol per μg per hour
percent of activity with no addition to second incubation (pertussis toxin; [4]): 3%
NADase activity (pertussis toxin; [5]): 171 pmol per μg per hour
percent of activity with no addition to second incubation (pertussis toxin; [5]): 92%
NADase activity (pertussis toxin; [6]): 151 pmol per μg per hour
percent of activity with no addition to second incubation (pertussis toxin; [6]): 79%
NADase activity (pertussis toxin; [7]): 59 pmol per μg per hour
percent of activity with no addition to second incubation (pertussis toxin; [7]): 116%
Amount of label incorporated into the S1 subunit ([1]; DTT 1 mM, ATP 1 mM, CHAPS 1%, labelled iodoacetate on ice for twenty hours): equal to the sum of that incorporated into the S2 and S3 subunits
Carboxymethylation of toxin subunits, in words ([1]; after activation of the toxin by DTT, ATP and CHAPS): carboxymethylated the enzymatic S1 subunit
Extent of carboxymethylation of the toxin ([1]; pH lowered from 8 to 7): decreases somewhat

— US5032398A, “Selective modification of the catalytic subunit of pertussis toxin” (priority 1986, dated 1991)
